Test results from US20080146617A1, “Methods of treating inflammatory diseases” (Roche Palo Alto LLC, priority 2006, published 2008).
Like-named read-outs stand apart in the source and are kept apart here.

Key:
Experiment in all cases: KinomeScan kinase profiling
Type in all cases: binding
[1] = target: T1, AMPK-alpha1 (Homo sapiens, UniProt Q13131)
T1 construct: purchased Ambit Biosciences (San Diego, Calif.)

[2] = target: T2, CLK2 (Homo sapiens, UniProt P49760)
T2 construct: purchased Ambit Biosciences (San Diego, Calif.)
T2 sequence (P49760 whole entry): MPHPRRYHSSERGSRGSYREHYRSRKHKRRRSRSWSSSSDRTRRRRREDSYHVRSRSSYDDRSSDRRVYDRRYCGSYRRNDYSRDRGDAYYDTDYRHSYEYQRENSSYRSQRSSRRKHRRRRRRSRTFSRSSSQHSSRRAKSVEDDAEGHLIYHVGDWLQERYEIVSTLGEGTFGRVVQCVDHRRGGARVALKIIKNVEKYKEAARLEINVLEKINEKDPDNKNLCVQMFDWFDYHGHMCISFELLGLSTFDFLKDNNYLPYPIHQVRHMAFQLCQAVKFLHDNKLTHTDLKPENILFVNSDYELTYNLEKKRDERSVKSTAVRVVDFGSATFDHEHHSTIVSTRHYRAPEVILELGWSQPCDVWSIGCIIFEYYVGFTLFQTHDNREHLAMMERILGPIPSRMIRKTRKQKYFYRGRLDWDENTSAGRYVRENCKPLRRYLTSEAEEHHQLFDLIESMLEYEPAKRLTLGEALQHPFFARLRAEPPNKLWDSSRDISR

[3] = target: T3, CSNK1E (Homo sapiens, UniProt P49674)
T3 construct: purchased Ambit Biosciences (San Diego, Calif.)
T3 sequence (P49674 whole entry): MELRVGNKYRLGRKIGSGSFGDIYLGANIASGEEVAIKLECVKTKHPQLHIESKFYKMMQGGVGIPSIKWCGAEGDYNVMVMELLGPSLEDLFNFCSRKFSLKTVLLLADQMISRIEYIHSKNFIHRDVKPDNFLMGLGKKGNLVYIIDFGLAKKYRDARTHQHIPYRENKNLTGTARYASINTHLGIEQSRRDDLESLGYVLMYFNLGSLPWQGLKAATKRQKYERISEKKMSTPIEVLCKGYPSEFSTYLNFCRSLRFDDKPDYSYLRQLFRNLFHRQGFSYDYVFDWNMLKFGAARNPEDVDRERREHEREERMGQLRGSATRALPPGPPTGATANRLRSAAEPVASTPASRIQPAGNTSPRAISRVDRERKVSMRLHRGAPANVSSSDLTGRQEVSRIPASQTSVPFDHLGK

[4] = target: T4, DAPK2 (Homo sapiens, UniProt Q9UIK4)
T4 construct: purchased Ambit Biosciences (San Diego, Calif.)

[5] = target: T5, EPHA2 (Homo sapiens, UniProt P29317)
T5 construct: purchased Ambit Biosciences (San Diego, Calif.)

[6] = target: T6, EPHA3 (Homo sapiens, UniProt P29320)
T6 construct: purchased Ambit Biosciences (San Diego, Calif.)

[7] = target: T7, EPHB4 (Homo sapiens, UniProt P54760)
T7 construct: purchased Ambit Biosciences (San Diego, Calif.)

[8] = target: T8, FGFR3 (Homo sapiens, UniProt P22607)
T8 construct: purchased Ambit Biosciences (San Diego, Calif.)
T8 sequence (P22607 23-806): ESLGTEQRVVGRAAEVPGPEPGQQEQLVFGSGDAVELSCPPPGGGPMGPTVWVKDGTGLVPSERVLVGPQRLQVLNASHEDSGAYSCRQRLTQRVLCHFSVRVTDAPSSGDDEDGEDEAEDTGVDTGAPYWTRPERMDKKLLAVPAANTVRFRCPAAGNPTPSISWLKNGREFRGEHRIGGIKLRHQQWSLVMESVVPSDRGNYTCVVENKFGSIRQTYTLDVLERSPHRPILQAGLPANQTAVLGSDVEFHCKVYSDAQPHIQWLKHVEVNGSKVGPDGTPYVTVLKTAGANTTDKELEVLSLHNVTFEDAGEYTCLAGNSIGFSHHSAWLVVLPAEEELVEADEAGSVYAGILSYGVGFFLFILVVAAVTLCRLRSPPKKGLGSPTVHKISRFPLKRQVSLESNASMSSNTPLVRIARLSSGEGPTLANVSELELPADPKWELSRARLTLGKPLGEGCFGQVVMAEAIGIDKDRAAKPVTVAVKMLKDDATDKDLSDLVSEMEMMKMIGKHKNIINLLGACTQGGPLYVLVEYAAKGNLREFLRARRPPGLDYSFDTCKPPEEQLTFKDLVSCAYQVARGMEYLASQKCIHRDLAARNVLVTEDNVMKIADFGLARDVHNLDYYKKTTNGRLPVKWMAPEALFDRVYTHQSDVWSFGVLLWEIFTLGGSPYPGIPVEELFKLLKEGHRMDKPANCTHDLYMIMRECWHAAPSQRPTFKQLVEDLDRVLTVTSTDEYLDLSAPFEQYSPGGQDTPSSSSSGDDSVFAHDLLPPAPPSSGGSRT

[9] = target: T9, FGR (Homo sapiens, UniProt P09769)
T9 construct: purchased Ambit Biosciences (San Diego, Calif.)

[10] = target: T10, JNK2 (Homo sapiens, UniProt P45984)
T10 construct: purchased Ambit Biosciences (San Diego, Calif.)

[11] = target: T11, LIMK1 (Homo sapiens, UniProt P53667)
T11 construct: purchased Ambit Biosciences (San Diego, Calif.)

[12] = target: T12, p38-beta (Homo sapiens, UniProt Q15759)
T12 construct: purchased Ambit Biosciences (San Diego, Calif.)

[13] = target: T13, PAK4 (Homo sapiens, UniProt O96013)
T13 construct: purchased Ambit Biosciences (San Diego, Calif.)

[14] = target: T14, PHKG1 (Homo sapiens, UniProt Q16816)
T14 construct: purchased Ambit Biosciences (San Diego, Calif.)

[15] = target: T15, EPHA5 (Homo sapiens, UniProt P54756)
T15 construct: purchased Ambit Biosciences (San Diego, Calif.)
T15 sequence (P54756 25-1037): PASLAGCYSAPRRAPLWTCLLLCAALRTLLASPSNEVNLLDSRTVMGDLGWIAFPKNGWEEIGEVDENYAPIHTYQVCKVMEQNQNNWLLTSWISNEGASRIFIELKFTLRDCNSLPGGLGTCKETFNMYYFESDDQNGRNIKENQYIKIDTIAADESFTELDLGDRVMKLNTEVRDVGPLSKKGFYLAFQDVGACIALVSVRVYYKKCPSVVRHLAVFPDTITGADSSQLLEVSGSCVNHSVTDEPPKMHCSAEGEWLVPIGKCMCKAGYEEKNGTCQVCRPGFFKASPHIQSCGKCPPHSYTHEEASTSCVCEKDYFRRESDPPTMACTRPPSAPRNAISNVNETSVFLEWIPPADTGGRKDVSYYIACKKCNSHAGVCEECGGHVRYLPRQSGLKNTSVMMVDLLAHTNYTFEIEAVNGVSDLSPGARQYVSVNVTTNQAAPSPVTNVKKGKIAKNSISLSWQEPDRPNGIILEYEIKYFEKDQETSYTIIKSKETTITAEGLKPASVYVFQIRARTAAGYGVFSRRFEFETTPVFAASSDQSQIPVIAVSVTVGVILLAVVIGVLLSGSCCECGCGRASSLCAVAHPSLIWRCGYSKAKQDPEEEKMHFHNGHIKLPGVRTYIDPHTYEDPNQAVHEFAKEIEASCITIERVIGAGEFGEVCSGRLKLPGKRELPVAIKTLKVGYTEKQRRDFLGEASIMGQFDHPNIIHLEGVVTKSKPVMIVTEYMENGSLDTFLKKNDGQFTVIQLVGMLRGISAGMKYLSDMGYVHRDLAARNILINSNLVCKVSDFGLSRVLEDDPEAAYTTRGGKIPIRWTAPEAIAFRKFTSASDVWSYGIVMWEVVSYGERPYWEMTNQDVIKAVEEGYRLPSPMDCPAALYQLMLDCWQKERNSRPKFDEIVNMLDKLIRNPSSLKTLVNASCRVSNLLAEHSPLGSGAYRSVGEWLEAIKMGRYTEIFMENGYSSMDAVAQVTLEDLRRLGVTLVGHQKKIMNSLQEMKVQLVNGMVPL
Description: (§1) The selectivity of a given CK1δ, CK1ε or CK1δ-CK1ε inhibitor compound can be determined by testing the compound against a panel of known kinases. An example of such a kinase profiling technology is the “KinomeScan” from Ambit Biosciences in which compounds can be screened for their modulatory activities against more than 200 known kinases.

[16] = target: T16, EPHA6 (Homo sapiens, UniProt Q9UF33)
T16 construct: purchased Ambit Biosciences (San Diego, Calif.)
Description: as §1

[17] = target: T17, EPHA8 (Homo sapiens, UniProt P29322)
T17 construct: purchased Ambit Biosciences (San Diego, Calif.)
T17 sequence (P29322 28-1005): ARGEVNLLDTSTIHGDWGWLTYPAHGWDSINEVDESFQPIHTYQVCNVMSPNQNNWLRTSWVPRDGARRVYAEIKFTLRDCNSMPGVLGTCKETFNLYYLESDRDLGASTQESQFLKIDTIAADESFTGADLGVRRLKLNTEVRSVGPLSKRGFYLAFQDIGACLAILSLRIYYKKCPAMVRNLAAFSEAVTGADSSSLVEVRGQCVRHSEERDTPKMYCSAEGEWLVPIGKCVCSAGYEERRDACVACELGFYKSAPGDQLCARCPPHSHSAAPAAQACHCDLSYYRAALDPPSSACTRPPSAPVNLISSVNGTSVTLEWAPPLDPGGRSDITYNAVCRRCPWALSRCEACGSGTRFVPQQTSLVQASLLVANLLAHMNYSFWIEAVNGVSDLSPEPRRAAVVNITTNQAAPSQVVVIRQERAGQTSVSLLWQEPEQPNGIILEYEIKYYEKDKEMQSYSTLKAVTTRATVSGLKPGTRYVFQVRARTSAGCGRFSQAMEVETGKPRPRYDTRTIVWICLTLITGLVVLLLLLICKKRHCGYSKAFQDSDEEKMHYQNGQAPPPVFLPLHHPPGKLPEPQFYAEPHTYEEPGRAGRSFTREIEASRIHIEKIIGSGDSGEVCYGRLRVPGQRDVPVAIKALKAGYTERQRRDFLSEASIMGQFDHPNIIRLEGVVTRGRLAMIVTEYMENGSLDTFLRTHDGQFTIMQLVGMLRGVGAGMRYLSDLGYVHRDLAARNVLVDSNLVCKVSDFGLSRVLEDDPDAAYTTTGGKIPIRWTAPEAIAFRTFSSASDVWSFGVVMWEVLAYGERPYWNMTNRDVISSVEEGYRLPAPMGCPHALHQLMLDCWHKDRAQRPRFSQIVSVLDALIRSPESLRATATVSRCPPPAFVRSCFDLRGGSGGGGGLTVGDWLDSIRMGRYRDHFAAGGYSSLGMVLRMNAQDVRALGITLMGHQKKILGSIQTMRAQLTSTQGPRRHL
Description: as §1

[18] = target: T18, ERBB2 (Homo sapiens, UniProt P04626)
T18 construct: purchased Ambit Biosciences (San Diego, Calif.)
Description: as §1

[19] = target: T19, ERBB4 (Homo sapiens, UniProt Q15303)
T19 construct: purchased Ambit Biosciences (San Diego, Calif.)
Description: as §1

[20] = target: T20, GAK (Homo sapiens, UniProt O14976)
T20 construct: purchased Ambit Biosciences (San Diego, Calif.)
Description: as §1

[21] = target: T21, HCK (Homo sapiens, UniProt P08631)
T21 construct: purchased Ambit Biosciences (San Diego, Calif.)
Description: as §1

[22] = target: T22, ITK (Homo sapiens, UniProt Q08881)
T22 construct: purchased Ambit Biosciences (San Diego, Calif.)
Description: as §1

[23] = target: T23, JAK1(Kin.Dom1) (Homo sapiens, UniProt P23458)
T23 construct: JAK1(Kin.Dom1); purchased Ambit Biosciences (San Diego, Calif.)
T23 sequence (P23458 583-855 limits assumed): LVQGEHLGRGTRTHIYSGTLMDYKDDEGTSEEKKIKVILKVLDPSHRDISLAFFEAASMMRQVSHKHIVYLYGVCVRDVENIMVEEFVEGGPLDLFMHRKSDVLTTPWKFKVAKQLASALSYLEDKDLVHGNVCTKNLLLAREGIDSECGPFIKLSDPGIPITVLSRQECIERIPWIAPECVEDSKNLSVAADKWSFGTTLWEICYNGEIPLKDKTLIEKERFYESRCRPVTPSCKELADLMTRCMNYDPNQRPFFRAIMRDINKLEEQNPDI
Description: as §1

[24] = target: T24, JNK3 (Homo sapiens, UniProt P53779)
T24 construct: purchased Ambit Biosciences (San Diego, Calif.)
Description: as §1

[25] = target: T25, MAP3K4 (Homo sapiens, UniProt Q9Y6R4)
T25 construct: purchased Ambit Biosciences (San Diego, Calif.)
Description: as §1

[26] = target: T26, MAP4K5 (Homo sapiens, UniProt Q9Y4K4)
T26 construct: purchased Ambit Biosciences (San Diego, Calif.)
Description: as §1

[27] = target: T27, MARK2 (Homo sapiens, UniProt Q7KZI7)
T27 construct: purchased Ambit Biosciences (San Diego, Calif.)
Description: as §1

[28] = target: T28, MYLK2 (Homo sapiens, UniProt Q9H1R3)
T28 construct: purchased Ambit Biosciences (San Diego, Calif.)
Description: as §1

[29] = target: T29, PAK6 (Homo sapiens, UniProt Q9NQU5)
T29 construct: purchased Ambit Biosciences (San Diego, Calif.)
Description: as §1

[30] = target: T30, PAK7/PAK5 (Homo sapiens, UniProt Q9P286)
T30 construct: purchased Ambit Biosciences (San Diego, Calif.)
Description: as §1

[31] = target: T31, PDPK1 (Homo sapiens, UniProt O15530)
T31 construct: purchased Ambit Biosciences (San Diego, Calif.)
Description: as §1

[32] = target: T32, PKMYT1 (Homo sapiens, UniProt Q99640)
T32 construct: purchased Ambit Biosciences (San Diego, Calif.)
Description: as §1

[33] = target: T33, SRC (Homo sapiens, UniProt P12931)
T33 construct: purchased Ambit Biosciences
T33 sequence (P12931 whole entry): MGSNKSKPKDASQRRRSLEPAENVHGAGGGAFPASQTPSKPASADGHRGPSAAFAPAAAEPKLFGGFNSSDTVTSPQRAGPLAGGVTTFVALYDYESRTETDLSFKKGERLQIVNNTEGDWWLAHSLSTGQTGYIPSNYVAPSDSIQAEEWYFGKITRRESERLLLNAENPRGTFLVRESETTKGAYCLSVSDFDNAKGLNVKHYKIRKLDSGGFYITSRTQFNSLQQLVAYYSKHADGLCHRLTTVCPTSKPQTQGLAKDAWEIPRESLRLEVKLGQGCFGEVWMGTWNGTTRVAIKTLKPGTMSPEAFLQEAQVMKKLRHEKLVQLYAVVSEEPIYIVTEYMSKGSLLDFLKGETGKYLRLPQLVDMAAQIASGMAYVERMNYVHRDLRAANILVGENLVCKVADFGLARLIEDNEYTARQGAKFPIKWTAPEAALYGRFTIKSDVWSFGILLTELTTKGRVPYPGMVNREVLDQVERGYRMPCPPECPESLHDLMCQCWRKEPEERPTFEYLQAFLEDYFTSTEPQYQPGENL
Description: as §1

[34] = target: T34, TXK (Homo sapiens, UniProt P42681)
T34 construct: purchased Ambit Biosciences
Description: as §1

[35] = target: T35, ULK3(mouse) (Mus musculus, UniProt Q3U3Q1)
T35 construct: purchased Ambit Biosciences (San Diego, Calif.)
T35 sequence (Q3U3Q1 whole entry): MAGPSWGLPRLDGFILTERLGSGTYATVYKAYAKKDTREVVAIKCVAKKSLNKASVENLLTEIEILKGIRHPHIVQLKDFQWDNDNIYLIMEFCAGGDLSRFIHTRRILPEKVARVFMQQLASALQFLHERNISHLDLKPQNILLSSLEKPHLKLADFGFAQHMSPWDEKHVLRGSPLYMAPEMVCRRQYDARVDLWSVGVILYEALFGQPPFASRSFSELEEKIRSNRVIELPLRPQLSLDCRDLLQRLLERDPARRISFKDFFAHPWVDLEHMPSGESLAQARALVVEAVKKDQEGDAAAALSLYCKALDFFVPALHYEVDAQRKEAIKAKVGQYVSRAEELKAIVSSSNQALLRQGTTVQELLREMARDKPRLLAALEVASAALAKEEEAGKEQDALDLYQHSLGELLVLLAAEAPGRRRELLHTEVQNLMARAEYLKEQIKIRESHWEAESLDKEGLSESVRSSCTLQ
Description: as §1

[36] = target: T36, RPS6KA2 (Homo sapiens, UniProt Q15349)
T36 construct: purchased Ambit Biosciences

[37] = target: T37, RPS6KA3 (Homo sapiens, UniProt P51812)
T37 construct: purchased Ambit Biosciences

[38] = target: T38, STK3 (Homo sapiens, UniProt Q13188)
T38 construct: purchased Ambit Biosciences

[39] = target: T39, STK4 (Homo sapiens, UniProt Q13043)
T39 construct: purchased Ambit Biosciences

NC(=O)c1ccc(-c2nc(-c3ccc4c(c3)OCCO4)c(-c3ccccn3)[nH]2)cc1 [D4476, 4-[4-(2,3-Dihydro-benzo[1,4]dioxin-6-yl)-5-pyridin-2-yl-1H-imidazol-2-yl]benzamide]
< 50%: inhibition at 10 µM [1] | inhibition at 10 µM [2] | inhibition at 10 µM [4] | inhibition at 10 µM [5] | inhibition at 10 µM [6] | inhibition at 10 µM [7] | inhibition at 10 µM [8] | inhibition at 10 µM [9] | inhibition at 10 µM [10] | inhibition at 10 µM [11] | inhibition at 10 µM [12] | inhibition at 10 µM [13] | inhibition at 10 µM [14] | inhibition at 10 µM [15] | inhibition at 10 µM [16] | inhibition at 10 µM [17] | inhibition at 10 µM [18] | inhibition at 10 µM [19] | inhibition at 10 µM [20] | inhibition at 10 µM [21] | inhibition at 10 µM [22] | inhibition at 10 µM [23] | inhibition at 10 µM [24] | inhibition at 10 µM [25] | inhibition at 10 µM [26] | inhibition at 10 µM [27] | inhibition at 10 µM [28] | inhibition at 10 µM [29] | inhibition at 10 µM [30] | inhibition at 10 µM [31] | inhibition at 10 µM [32] | inhibition at 10 µM [33] | inhibition at 10 µM [34] | inhibition at 10 µM [35] | inhibition at 10 µM [36] | inhibition at 10 µM [37] | inhibition at 10 µM [38] | inhibition at 10 µM [39]
100%: inhibition at 10 µM [3] | % Inhibition ([3]; 10 μM, CSNK1E (CK1ε isoform))

NC(=O)c1ccc(-c2nc(-c3ccc4c(c3)OCO4)c(-c3ccccn3)[nH]2)cc1 [SB431542, 4-(4-benzo-[1,3]dioxol-5-yl-5-pyridin-2-yl-1H-imidazol-2-yl)benzamide]
< 50%: inhibition at 10 µM [1] | inhibition at 10 µM [2] | inhibition at 10 µM [4] | inhibition at 10 µM [5] | inhibition at 10 µM [6] | inhibition at 10 µM [7] | inhibition at 10 µM [8] | inhibition at 10 µM [9] | inhibition at 10 µM [10] | inhibition at 10 µM [11] | inhibition at 10 µM [12] | inhibition at 10 µM [13] | inhibition at 10 µM [14] | inhibition at 10 µM [15] | inhibition at 10 µM [16] | inhibition at 10 µM [17] | inhibition at 10 µM [18] | inhibition at 10 µM [19] | inhibition at 10 µM [20] | inhibition at 10 µM [21] | inhibition at 10 µM [22] | inhibition at 10 µM [23] | inhibition at 10 µM [24] | inhibition at 10 µM [25] | inhibition at 10 µM [26] | inhibition at 10 µM [27] | inhibition at 10 µM [28] | inhibition at 10 µM [29] | inhibition at 10 µM [30] | inhibition at 10 µM [31] | inhibition at 10 µM [32] | inhibition at 10 µM [33] | inhibition at 10 µM [34] | inhibition at 10 µM [35] | inhibition at 10 µM [36] | inhibition at 10 µM [37] | inhibition at 10 µM [38] | inhibition at 10 µM [39]
100%: % Inhibition ([3]; 10 μM, CSNK1E (CK1ε isoform)) | inhibition at 10 µM ([3]; 10 μM, CSNK1E (CK1ε isoform), read-out: % Inhibition)
